Measured values: US12150955B2, “Iodine compositions” (DERMALIQ THERAPEUTICS, INC., priority 2017, dated 2024)

Key:
[1] = Concentration of molecular iodine dissolved in the vehicle (saturated solutions); assay type: physicochemical
Procedure: Molecular iodine (I2) solutions in the semifluorinated alkane F4H5 at target concentrations of 0.01 mg/ml, 0.05 mg/ml, 0.1 mg/mL, 0.5 mg/mL, 0.55 mg/ml and 0.94 mg/mL were prepared. Molecular iodine was weighed into clear glass vials, followed by addition of the calculated volume of semifluorinated alkane F4H5. The compositions were stirred for 2 hours at room temperatures. The compositions provided clear pink solutions, ranging from strong pink/violet color at high concentrations (0.55 mg/ml) to very dilute pinkish colour at lower concentrations (0.01 mg/ml).
The 0.94 mg/ml solution was prepared by adding additional F4H5 to a composition comprising 1.0 mg/mL molecular iodine until all remaining molecular iodine particles were dissolved, providing a clear solution of deep pink/violet colour.
Molecular iodine (I2) solutions in the semifluorinated alkane F6H8 at target concentrations of 0.1 mg/mL, 0.5 mg/mL and 1.0 mg/mL were prepared. Molecular iodine was weighed into clear glass vials, followed by addition of the calculated volume of semifluorinated alkane F6H8. The compositions were stirred for 2 hours at room temperature
Additional F6H8 was added to the target 1.0 mg/mL composition until all remaining molecular iodine particles were dissolved, providing a clear solution, with a concentration of about 0.88 mg/mL. The solution is a deep pink/violet in colour.
Solutions with higher I2 concentrations may be prepared with the addition of ethanol (non-absolute or alternatively absolute). F4H5/EtOH-Concentrations of about 20 mg/mL of I2 in F4H5 are achieved when ethanol is added to an amount of 38% (w/w), relative to the weight of the vehicle The resulting composition is a red-brown coloured solution.
F6H8/EtOH-Solutions with higher I2 concentrations may be prepared with the addition of ethanol (non-absolute or alternatively absolute). Concentrations of about 20 mg/mL of I2 in F6H8 are achieved when ethanol is added to an amount of 38% (w/w), relative to the weight of the vehicle.
Saturated iodine solutions as prepared in Example 1 above of I2 in F4H5 (0.94 mg/mL) and F6H8 (0.88 mg/mL) were stored standing under ambient atmosphere and temperature conditions under a capped clear glass vial for 52 weeks without protection from light.

Rabbit corneas = assay: Ex Vivo Eye Irritation Test (EVEIT), corneal healing
Procedure: A comparison in respect of corneal healing process was conducted for a composition comprising molecular iodine (0.25 mg/ml; 250 ppm) in 1-perfluorohexyl-octane (Composition B) with vehicle 1-perfluorohexyl-octane (Composition A) and hyaluronic acid (HYLO-COMOD®) as a reference and 0.01% BAC (benzalkonium chloride) as a control using an Ex Vivo Eye Irritation Test (EVEIT), similar to as described in M. Frentz et al, Altern. to Lab. Anim., 2008 (36) p 25-32; and N. Schrage et al, Graefes Arch Clin Exp Ophthalmol 2012 (250), 1330-1340).
Method. […]
After 12 h of stabilization in the culture chamber, the corneas were evaluated by microscopy and corneas with intact epithelium and without opacities were selected. […] All defects were monitored by fluorescein sodium staining (0.17% aq. solution) and microscopy.
The test substances were administered one hour after induction of the corneal erosion and were applied six times daily onto the apex of the corneas (30-50 μL every four hours). […] All defects were monitored by fluorescein sodium stains (0.17% aq. solution) with yellow green fluorescence indicating the areas of epithelial defects. Erosion sizes were determined using a software tool of the microscope (DISKUS). […] To monitor the metabolic activity of the cornea, glucose and lactate concentrations were photometrically quantified in the outflow medium from the artificial anterior chambers.

Compound: II [molecular iodine, Molecular iodine]
- concentration at which all molecular iodine particles were dissolved (saturated solution) ([1]; in F4H5, room temperature): 940 µg/mL
- I2 concentration achieved ([1]; in F4H5 with ethanol 38% (w/w) of the vehicle): about 20 mg/mL
- concentration at which all molecular iodine particles were dissolved (saturated solution) ([1]; in F6H8, room temperature): about 0.88 mg/mL
- I2 concentration achieved ([1]; in F6H8 with ethanol 38% (w/w) of the vehicle): about 20 mg/mL

Compound: benzalkonium chloride [0.01% BAC]
- corneal healing process after induction of corneal erosion (in words) (Rabbit corneas): progressive increase of the induced epithelial lesions
